Measurements: patent publication EP4471048A1, “PEPTIDE INHIBITORS OF INTERLEUKIN-23 RECEPTOR” (Zealand Pharma A/S, priority 2023, dated 2024)
Where a SMILES comes first, the peptide text is derived from it. Bridges are numbered along the chain shown (N, C = ends). [ ]: non-standard residue; d: D form. 2Nal = N[C@@H](Cc1ccc2ccccc2c1)C(=O)O; AEF = NCCOc1ccc(C[C@H](N)C(=O)O)cc1; 3Pal = N[C@@H](Cc1cccnc1)C(=O)O; Lys(Me) = CNCCCC[C@H](N)C(=O)O; αMeL = CC(C)C[C@](C)(N)C(=O)O; NMeK = CN[C@@H](CCCCN)C(=O)O; Dab = NCC[C@H](N)C(=O)O; βAla = NCCC(=O)O

How the values were obtained:
[1] = Peptide stability in simulated intestinal fluid (SIF); assay type: in vitro ADME; conditions: 37 °C, porcine pancreatin; for remaining at 1 h, 10 µM / remaining at 4 h, 10 µM: pig; for remaining at 1 h, 10 µM: pH 6.8, 1 h
Experimental: (§1) SGF was prepared by dissolving sodium chloride (0.2 g) in 50 mL of water. A volume of 0.7 mL of 10 M HCl was added to adjust the pH of the solution to 1.2 and the volume made up to 100 mL with water. […] SIF was prepared by dissolving monobasic potassium phosphate (0.68 g) in 50 mL of water and adjusting the pH to 6.8 with 1 M NaOH. The volume was subsequently made up to 100 mL with water. 200 mg porcine pancreatin (P1625, Sigma Aldrich) was gently dissolved into 20 mL preheated (37 °C) solution (10 g/L) immediately prior to the incubation.
(§2) The incubation was performed at 37 °C with gentle shaking. […] After the last timepoint, the sampling plate was mixed for 10 min on a shaking table and centrifuged 10 min at 2200 g. 70 µL resulting supernatant was diluted with 150 µL water, mixed and centrifugated before analysis by liquid chromatography high resolution mass spectrometry. […] Percent remaining at each timepoint was calculated relative to timepoint zero based on absolute peak areas.
Compounds with a SIF stability (after 4 h) above 70% are considered highly SIF stable.

[2] = biological target: T1, human IL-23R (Homo sapiens, UniProt Q5VWK5); assay: biochemical; conditions: for Emax: read-out: % displacement (hIL-23R NIuc)
T1 sequence (Q5VWK5 22-629): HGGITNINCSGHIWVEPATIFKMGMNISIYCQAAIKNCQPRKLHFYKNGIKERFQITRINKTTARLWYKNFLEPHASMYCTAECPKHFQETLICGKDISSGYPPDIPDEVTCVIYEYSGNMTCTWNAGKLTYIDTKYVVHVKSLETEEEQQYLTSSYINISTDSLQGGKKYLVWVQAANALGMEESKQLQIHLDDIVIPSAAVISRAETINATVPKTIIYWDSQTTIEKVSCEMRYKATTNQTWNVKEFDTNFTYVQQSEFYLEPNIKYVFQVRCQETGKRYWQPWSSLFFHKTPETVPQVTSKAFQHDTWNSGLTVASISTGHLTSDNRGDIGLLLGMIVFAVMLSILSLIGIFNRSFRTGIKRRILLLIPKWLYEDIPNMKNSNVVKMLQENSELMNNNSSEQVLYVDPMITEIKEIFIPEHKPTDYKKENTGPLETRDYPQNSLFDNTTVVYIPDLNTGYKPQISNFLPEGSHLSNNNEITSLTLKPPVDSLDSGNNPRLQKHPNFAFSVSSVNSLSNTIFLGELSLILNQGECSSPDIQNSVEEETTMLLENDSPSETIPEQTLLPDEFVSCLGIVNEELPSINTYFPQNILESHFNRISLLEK
Procedure, shortened: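 Membranes from HEK293 cells stably expressing Nluc-tagged human IL-23R were incubated 2 h at room temperature with test compound and a fluorophore-labelled tracer. After substrate addition, loss of BRET (TAMRA over luciferase emission) reported tracer displacement. A 4PL fit gave IC50 values.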

[3] = Peptide stability in simulated gastric fluid (SGF); assay type: in vitro ADME; conditions: 37 °C, porcine pepsin; for remaining at 1 h, 10 µM / remaining at 4 h, 10 µM: pig, simulated gastric fluid (SGF) with porcine pepsin (3.2 g/L), pH 1.2, 10 µM; for remaining at 1 h, 10 µM: pH 1.2, 1 h, read-out: SGF (% remaining 1 h); for remaining at 4 h, 10 µM: read-out: SGF (% remaining 4 h)
Experimental: as §1, §2
Compounds with a SGF stability (after 4 h) above 70% are considered highly SGF stable. […] Table 3-4: SGF data

[4] = pH 6.8, 4 h, read-out: SIF (% remaining 4 h)

Row | SIF (% remaining 4 h) ([1]; 10 µM, pH 6.8, 4 h) [%] | remaining at 1 h, 10 µM [1] [%] | remaining at 4 h, 10 µM ([1]; SAR tables, % peptide remaining, pH 6.8, 4 h, read-out: SIF (% after 4 h)) [%] | IC50 [2] [nM] | Emax [2] [%] | remaining at 1 h, 10 µM [3] [%] | remaining at 4 h, 10 µM ([3]; pH 1.2, 4 h) [%] | remaining at 4 h, 10 µM [1, 4] [%] | % displacement (hIL-23R NIuc) [2] [%] | SGF (% remaining 4 h) ([3]; 10 µM, pH 1.2, 4 h) [%] | Compound
1 |  | 11 |  | 0.12 |  | 100 | 99 | 0 | 102 |  | CC[C@H](C)[C@@H]1NC(=O)[C@@H]2CCCCNC(=O)CC[C@@H](C(=O)N[C@@H](Cc3cn(C)cn3)C(=O)N[C@@H](Cc3cccnc3)C(=O)NC)NC(=O)[C@](C)(CC(C)C)NC(=O)[C@H](Cc3ccc4ccccc4c3)NC(=O)[C@H](Cc3ccc(OCCN)cc3)NC(=O)[C@H](CCC(=O)N2)NC(=O)[C@H](CCC(N)=O)NC(=O)[C@H](Cc2c[nH]c3ccccc23)NC(=O)[C@H](C(C)C)NC1=O [Compound 73, K(1c)(6c)^†IVWQE(6c)[Y(2-aminoethoxy)][2-Nal][2-Me-Leu]E(1c)[H(1-Me)][3-(3-Pyridyl)-Ala]-[NHMe]]
2 |  | 91 |  |  | 99 | 94 | 92 | 89 |  |  | CC[C@H](C)[C@@H]1NC(=O)[C@@H]2CCC(=O)N(C)CCCC[C@@H](C(=O)N[C@@H](CCN)C(=O)N[C@@H](Cc3cccnc3)C(=O)NC)NC(=O)[C@](C)(CC(C)C)NC(=O)[C@H](Cc3ccc4ccccc4c3)NC(=O)[C@H](Cc3ccc(OCCN)cc3)NC(=O)[C@H](CCC(=O)N2)NC(=O)[C@H](CCC(N)=O)NC(=O)[C@H](Cc2c[nH]c3ccccc23)NC(=O)[C@H](C(C)C)NC1=O [Compound 74, E(1c)(6c)^†IVWQE(6c)[Y(2-aminoethoxy)][2-Nal][2-Me-Leu][K(Me)](1 c)[Dab][3-(3-Pyridyl)-Ala]-[NHMe]] (EIVWQE[AEF][2Nal][αMeL][Lys(Me)][Dab][3Pal]-NHMe; lactam 1-10, N-6)
3 |  | 96 |  | 0.017 | 101 | 102 | 92 | 79 |  |  | CC[C@H](C)[C@@H]1NC(=O)[C@@H]2CCCCNC(=O)CC[C@@H](C(=O)N[C@@H](CCN)C(=O)N[C@@H](Cc3cccnc3)C(=O)NC)NC(=O)[C@](C)(CC(C)C)NC(=O)[C@H](Cc3ccc4ccccc4c3)NC(=O)[C@H](Cc3ccc(OCCN)cc3)NC(=O)[C@H](CCC(=O)N2C)NC(=O)[C@H](CCC(N)=O)NC(=O)[C@H](Cc2c[nH]c3ccccc23)NC(=O)[C@H](C(C)C)NC1=O [Compound 75, [N-Me-Lys](1c)(6c)^†IVWQE(6c)[Y(2-aminoethoxy)][2-Nal][2-Me-Leu]E(1c)[Dab][3-(3-Pyridyl)-Ala]-[NHMe]]
4 |  | 116 |  | 0.017 | 102 | 107 | 104 | 89 |  |  | CNC(=O)[C@H](Cc1cccnc1)NC(=O)[C@H](CCN)NC(=O)[C@@H]1CCC(=O)NCCCC[C@H]2C(=O)NCCC(=O)N[C@@H](Cc3c[nH]c4ccccc34)C(=O)N[C@@H](CCC(N)=O)C(=O)N[C@@H](CCC(=O)N2C)C(=O)N[C@@H](Cc2ccc(OCCN)cc2)C(=O)N[C@@H](Cc2ccc3ccccc3c2)C(=O)N[C@@](C)(CC(C)C)C(=O)N1 [Compound 80, [N-Me-Lys](1c)(6c)^†[3-Aminopropanoyl]WQE(6c)[Y(2-aminoethoxy)][2-Nal][2-Me-Leu]E(1c)[Dab][3-(3-Pyridyl)-Ala]-[NHMe]] ([NMeK][βAla]WQE[AEF][2Nal][αMeL]E[Dab][3Pal]-NHMe; lactam 1-9, N-5)
5 |  | 92 |  | 0.11 | 97 | 107 | 103 | 82 |  |  | CNC(=O)[C@H](Cc1cccnc1)NC(=O)[C@H](CCN)NC(=O)[C@@H]1CCC(=O)NCCCC[C@@H]2NC(=O)CC[C@H](NC(=O)[C@H](CCC(N)=O)NC(=O)[C@H](Cc3c[nH]c4ccccc34)NC(=O)CCNC2=O)C(=O)N[C@@H](Cc2ccccn2)C(=O)N[C@@H](Cc2ccc3ccccc3c2)C(=O)N[C@@](C)(CC(C)C)C(=O)N1 [Compound 84, K(1c)(6c)^†[3-Aminopropanoyl]WQE(6c)[3-(2-Pyridyl)-Ala][2-Nal][2-Me-Leu]E(1c)[Dab][3-(3-Pyridyl)-Ala]-[NHMe]]
6 |  | 77 |  | 0.049 |  | 94 | 111 | 36 | 101 |  | CNC(=O)[C@H](Cc1cccnc1)NC(=O)[C@H](Cc1cnc[nH]1)NC(=O)[C@@H]1CCC(=O)NCCCC[C@@H]2NC(=O)CC[C@H](NC(=O)[C@H](CCC(N)=O)NC(=O)[C@H](Cc3c[nH]c4ccccc34)NC(=O)CCNC2=O)C(=O)N[C@@H](Cc2ccc(OCCN)cc2)C(=O)N[C@@H](Cc2ccc3ccccc3c2)C(=O)N[C@@](C)(CC(C)C)C(=O)N1 [Compound 86, K(1c)(6c)^†[3-Aminopropanoyl]WQE(6c)[Y(2-aminoethoxy)][2-Nal][2-Me-Leu]E(1c)H[3-(3-Pyridyl)-Ala]-[NHMe]]

Further lines, the compound ahead of its results:

Row | Compound | SIF (% remaining 4 h) ([1]; 10 µM, pH 6.8, 4 h) [%] | remaining at 1 h, 10 µM [1] [%] | remaining at 4 h, 10 µM ([1]; SAR tables, % peptide remaining, pH 6.8, 4 h, read-out: SIF (% after 4 h)) [%] | IC50 [2] [nM] | Emax [2] [%] | remaining at 1 h, 10 µM [3] [%] | remaining at 4 h, 10 µM ([3]; pH 1.2, 4 h) [%] | remaining at 4 h, 10 µM [1, 4] [%] | % displacement (hIL-23R NIuc) [2] [%] | SGF (% remaining 4 h) ([3]; 10 µM, pH 1.2, 4 h) [%]
7 | CC[C@H](C)[C@@H]1NC(=O)[C@@H]2CCCCNC(=O)CC[C@@H](C(=O)N3CCNC3C(=O)N[C@@H](Cc3cccnc3)C(=O)NC)NC(=O)[C@](C)(CC(C)C)NC(=O)[C@H](Cc3ccc4ccccc4c3)NC(=O)[C@H](Cc3ccc(OCCN)cc3)NC(=O)[C@H](CCC(=O)N2)NC(=O)[C@H](CCC(N)=O)NC(=O)[C@H](Cc2c[nH]c3ccccc23)NC(=O)[C@H](C(C)C)NC1=O (stereo partly drawn) [Compound 72, K(1c)(6c)^†IVWQE(6c)[Y(2-aminoethoxy)][2-Nal][2-Me-Leu]E(1c)[(R,S)-Imidazolidin-2-carbonyl][3-(3-Pyridyl)-Ala]-[NHMe]] | 110 | 102 | 110 | 99 | 97 | 94 | 107 |  |  | 
8 | CNC(=O)[C@H](Cc1cccnc1)NC(=O)[C@H](CCN)NC(=O)[C@@H]1CCC(=O)NCCCC[C@@H]2NC(=O)CC[C@H](NC(=O)[C@H](CCC(N)=O)NC(=O)[C@H](Cc3c[nH]c4ccccc34)NC(=O)CCN(C)C2=O)C(=O)N[C@@H](Cc2ccc(OCCN)cc2)C(=O)N[C@@H](Cc2ccc3ccccc3c2)C(=O)N[C@@](C)(CC(C)C)C(=O)N1 [Compound 81, K(1c)(6c)^†[N-Me-3-Aminopropanoyl]WQE(6c)[Y(2-aminoethoxy)][2-Nal][2-Me-Leu]E(1c)[Dab][3-(3-Pyridyl)-Ala]-[NHMe]] |  | 101 |  | 0.056 |  | 100 |  | 78 | 103 | 99
9 | CNC(=O)[C@H](Cc1cccnc1)NC(=O)[C@H](CCN)NC(=O)[C@@H]1CCC(=O)NCCCC[C@@H]2NC(=O)CC[C@H](NC(=O)[C@H](CCC(N)=O)NC(=O)[C@H](Cc3c[nH]c4ccccc34)NC(=O)CCNC2=O)C(=O)N[C@@H](Cc2cccnc2)C(=O)N[C@@H](Cc2ccc3ccccc3c2)C(=O)N[C@@](C)(CC(C)C)C(=O)N1 [Compound 83, K(1c)(6c)^†[3-Aminopropanoyl]WQE(6c)[3-(3-Pyridyl)-Ala][2-Nal][2-Me-Leu]E(1c)[Dab][3-(3-Pyridyl)-Ala]-[NHMe]] |  | 94 |  | 0.38 | 101 | 106 | 97 | 86 |  | 
10 | CNC(=O)[C@H](Cc1cccnc1)NC(=O)[C@H](CCN)NC(=O)[C@@H]1CCC(=O)NCCCC[C@@H]2NC(=O)CC[C@H](NC(=O)[C@H](CCC(N)=O)NC(=O)[C@H](Cc3c[nH]c4ccccc34)NC(=O)CCNC2=O)C(=O)N[C@@H](Cc2ccncc2)C(=O)N[C@@H](Cc2ccc3ccccc3c2)C(=O)N[C@@](C)(CC(C)C)C(=O)N1 [Compound 85, K(1c)(6c)^†[3-Aminopropanoyl]WQE(6c)[3-(4-Pyridyl)-Ala][2-Nal][2-Me-Leu]E(1c)[Dab][3-(3-Pyridyl)-Ala]-[NHMe]] |  | 103 |  | 0.17 | 97 | 109 | 110 | 85 |  | 
